Measured values taken from patent publication US20120252741A1, “NOVEL SEMI-SYNTHETIC GLYCOPEPTIDES AS ANTIBACTERIAL AGENTS” (priority 2008, published 2012).
≈ marks a conversion by molar mass, not a printed value. Like-named read-outs stand apart in the source and are kept apart here.

Experiments:
Format in all cases: cell-based
[1] = tested on: Streptococcus pneumoniae 1195 (ATCC 49619); assay: MIC, broth microdilution, SPNE 1195; conditions: Streptococcus pneumoniae, ATCC49619, class symbols, read-out: MIC S PNE 1195
Experimental: (§1) Antibacterial activity in vitro is investigated by broth microdilution method in Meuller-Hinton broth as recommended by NCCLS. All strains tested are clinical isolates either sensitive or resistant to natural glycopeptides. MIC values were determined using the CLSI-recommended broth microdilution procedure (Clinical and Laboratory Standards Institute, Methods for Dilution Antimicrobial Susceptibility Tests for Bacteria That Grow Aerobically; Approved Standard-Seventh Edition.). Automated liquid handlers (Multidrop 384, Labsystems, Helsinki, Finland; Biomek 2000 and Multimek 96, Beckman Coulter, Fullerton Calif.) were used to conduct serial dilutions and liquid transfers. The MIC value for vancomycin is given for comparison. The abbreviations for organisms tested are as follow: SA 100—Staphylococcus aureus 100 (ATCC 29213); SA 757—Staphylococcus aureus 757 (MRSA); SA 2012—Staphylococcus aureus 2012 (VISA); SE 835—Staphylococcus epidermidis 835; SE 831—Staphylococcus epidermidis 831 (MRSE); EFc 101—Enterococcus faecalis 101 (ATCC 29212); EFc 848—Enterococcus faecalis 848 (VRE, Van A); EFcm 800—Enterococcus faecium 800; EFcm 752—Enterococcus faecium 752 (VRE, Van A); SPNE 1195—Streptococcus pneumoniae 1195 (ATCC 49619); SPY 712—Streptococcus pyogenes 712.

[2] = tested on: Staphylococcus aureus 757 (MRSA); assay: MIC, broth microdilution, SA 757; conditions: read-out: MIC SA 757
Experimental: as §1

[3] = tested on: Enterococcus faecalis 848 (VRE, Van A); assay: MIC, broth microdilution, EFc 848; conditions: VRE, Van A, class symbols, read-out: MIC E FC 848
Experimental: as §1

[4] = tested on: Staphylococcus epidermidis 835; assay: MIC, broth microdilution, SE 835; conditions: Staphylococcus epidermidis, 835, class symbols, read-out: MIC SE 835
Experimental: as §1

[5] = tested on: Staphylococcus epidermidis 831 (MRSE); assay: MIC, broth microdilution, SE 831; conditions: Staphylococcus epidermidis, read-out: MIC SE 831
Experimental: as §1

[6] = tested on: Staphylococcus aureus 2012 (VISA); assay: MIC, broth microdilution, SA 2012; conditions: read-out: MIC SA 2012
Experimental: as §1

[7] = tested on: Enterococcus faecium 752 (VRE, Van A); assay: MIC, broth microdilution, EFcm 752; conditions: VRE, Van A, class symbols, read-out: MIC E FCM 752
Experimental: as §1

[8] = tested on: Enterococcus faecalis 101 (ATCC 29212); assay: MIC, broth microdilution, EFc 101; conditions: Enterococcus faecalis, ATCC29212, class symbols, read-out: MIC E FC 101
Experimental: as §1

[9] = tested on: Streptococcus pyogenes 712; assay: MIC, broth microdilution, SPY 712; conditions: Streptococcus pyogenes, 712, class symbols, read-out: MIC S PYO 712
Experimental: as §1

[10] = tested on: Staphylococcus aureus 100 (ATCC 29213); assay: MIC, broth microdilution, SA 100; conditions: Staphylococcus aureus, ATCC29213, class symbols, read-out: MIC SA 100
Experimental: as §1

Enterococcus faecium 800 = assay: MIC, broth microdilution, EFcm 800; conditions: Enterococcus faecium, 800, class symbols, read-out: MIC E FCM 800
Experimental: as §1

[11] = Table 2, in the presence of 0.002% Polysorbate 80
[12] = Table 2, in the presence of 0.002% Polysorbate 80, class symbols

Row | SMILES | MIC ([1]; Table 1) [µg/mL] | MIC ([2]; Table 1, class symbols) [µg/mL] | MIC ([3]; Table 1) [µg/mL] | MIC ([4]; Table 1) [µg/mL] | MIC ([5]; Table 1, class symbols) [µg/mL] | MIC ([6]; Table 1, class symbols) [µg/mL] | MIC ([7]; Table 1) [µg/mL] | MIC ([8]; Table 1) [µg/mL] | MIC ([9]; Table 1) [µg/mL] | MIC ([10]; Table 1) [µg/mL] | MIC [2, 12] [µg/mL] | MIC [3, 11] [µg/mL] | MIC [4, 11] [µg/mL] | MIC [5, 12] [µg/mL] | MIC [6, 12] [µg/mL] | MIC [7, 11] [µg/mL] | MIC [8, 11] [µg/mL] | MIC [9, 11] [µg/mL] | MIC [10, 11] [µg/mL] | MIC (Enterococcus faecium 800; [11]) [µg/mL] | further results
1 | CCCCCCCCC(=O)NC(=O)C[C@@H]1NC(=O)[C@H](NC(=O)[C@@H](CC(C)C)NC)[C@H](O)c2ccc(c(Cl)c2)Oc2cc3cc(c2O[C@@H]2O[C@H](CO)[C@@H](O)[C@H](O)[C@H]2O[C@H]2C[C@](C)(N)[C@H](O)[C@H](C)O2)Oc2ccc(cc2Cl)[C@@H](O)[C@@H]2NC(=O)[C@H](NC(=O)[C@@H]3NC1=O)c1ccc(O)c(c1)-c1c(O)cc(O)cc1[C@@H](C(=O)NC1C3CC4CC(C3)CC1C4)NC2=O (stereo partly shown) [Compound 42] | 0.01 to 0.5 (≈ 0.0058 to 0.29 µM) | 0.01 to 0.5 (≈ 0.0058 to 0.29 µM) | 1 to 2 (≈ 0.58 to 1.16 µM) | 0.01 to 0.5 (≈ 0.0058 to 0.29 µM) | 0.01 to 0.5 (≈ 0.0058 to 0.29 µM) | 1 to 2 (≈ 0.58 to 1.16 µM) | 0.01 to 0.5 (≈ 0.0058 to 0.29 µM) | 0.01 to 0.5 (≈ 0.0058 to 0.29 µM) | 0.01 to 0.5 (≈ 0.0058 to 0.29 µM) | 0.01 to 0.5 (≈ 0.0058 to 0.29 µM) |  |  |  |  |  |  |  |  |  |  | MIC (Enterococcus faecium 800; Table 1): 0.01 to 0.5 µg/mL (≈ 0.0058 to 0.29 µM)
2 | CCCCCCCCCC(=O)NC(=O)C[C@@H]1NC(=O)[C@H](NC(=O)[C@@H](CC(C)C)NC)[C@H](O)c2ccc(c(Cl)c2)Oc2cc3cc(c2O[C@@H]2O[C@H](CO)[C@@H](O)[C@H](O)[C@H]2O[C@H]2C[C@](C)(N)[C@H](O)[C@H](C)O2)Oc2ccc(cc2Cl)[C@@H](O)[C@@H]2NC(=O)[C@H](NC(=O)[C@@H]3NC1=O)c1ccc(O)c(c1)-c1c(O)cc(O)cc1[C@@H](C(=O)NC1C3CC4CC(C3)CC1C4)NC2=O (stereo partly shown) [Compound 43] | 0.01 to 0.5 (≈ 0.00576 to 0.288 µM) | 0.5 to 1 (≈ 0.288 to 0.576 µM) | 1 to 2 (≈ 0.576 to 1.15 µM) | 0.01 to 0.5 (≈ 0.00576 to 0.288 µM) | 0.01 to 0.5 (≈ 0.00576 to 0.288 µM) | 1 to 2 (≈ 0.576 to 1.15 µM) | 0.01 to 0.5 (≈ 0.00576 to 0.288 µM) | 0.01 to 0.5 (≈ 0.00576 to 0.288 µM) | 0.01 to 0.5 (≈ 0.00576 to 0.288 µM) | 0.01 to 0.5 (≈ 0.00576 to 0.288 µM) |  |  |  |  |  |  |  |  |  |  | MIC (Enterococcus faecium 800; Table 1): 0.01 to 0.5 µg/mL (≈ 0.00576 to 0.288 µM)
3 | CCCCOCC(=O)NC(=O)C[C@@H]1NC(=O)[C@H](NC(=O)[C@@H](CC(C)C)NC)[C@H](O)c2ccc(c(Cl)c2)Oc2cc3cc(c2O[C@@H]2O[C@H](CO)[C@@H](O)[C@H](O)[C@H]2O[C@H]2C[C@](C)(N)[C@H](O)[C@H](C)O2)Oc2ccc(cc2Cl)[C@@H](O)[C@@H]2NC(=O)[C@H](NC(=O)[C@@H]3NC1=O)c1ccc(O)c(c1)-c1c(O)cc(O)cc1[C@@H](C(=O)NC1C3CC4CC(C3)CC1C4)NC2=O (stereo partly shown) [Compound 44] | 0.01 to 0.5 (≈ 0.00589 to 0.295 µM) | 0.5 to 1 (≈ 0.295 to 0.589 µM) | > 16 | 0.01 to 0.5 (≈ 0.00589 to 0.295 µM) | 0.01 to 0.5 (≈ 0.00589 to 0.295 µM) | 2 to 4 (≈ 1.18 to 2.36 µM) | > 16 | 0.5 to 1 (≈ 0.295 to 0.589 µM) | 0.01 to 0.5 (≈ 0.00589 to 0.295 µM) | 0.5 to 1 (≈ 0.295 to 0.589 µM) |  |  |  |  |  |  |  |  |  |  | MIC (Enterococcus faecium 800; Table 1): 0.01 to 0.5 µg/mL (≈ 0.00589 to 0.295 µM)
4 | CCCCCCC(C)C(=O)NC(=O)C[C@@H]1NC(=O)[C@H](NC(=O)[C@@H](CC(C)C)NC)[C@H](O)c2ccc(c(Cl)c2)Oc2cc3cc(c2O[C@@H]2O[C@H](CO)[C@@H](O)[C@H](O)[C@H]2O[C@H]2C[C@](C)(N)[C@H](O)[C@H](C)O2)Oc2ccc(cc2Cl)[C@@H](O)[C@@H]2NC(=O)[C@H](NC(=O)[C@@H]3NC1=O)c1ccc(O)c(c1)-c1c(O)cc(O)cc1[C@@H](C(=O)NC1C3CC4CC(C3)CC1C4)NC2=O (stereo partly shown) [Compound 46] |  |  |  |  |  |  |  |  |  |  | 0.01 to 0.5 | 2 to 4 | 0.01 to 0.5 | 0.01 to 0.5 | 2 to 4 | 0.01 to 0.5 | 0.01 to 0.5 | 0.01 to 0.5 | 0.01 to 0.5 | 0.01 to 0.5 | MIC [1, 11]: 0.01 to 0.5 µg/mL
5 | CN[C@H](CC(C)C)C(=O)N[C@H]1C(=O)N[C@@H](CC(=O)NC(=O)c2ccc(OC)cc2)C(=O)N[C@H]2C(=O)N[C@H]3C(=O)N[C@H](C(=O)N[C@H](C(=O)NC4C5CC6CC(C5)CC4C6)c4cc(O)cc(O)c4-c4cc3ccc4O)[C@H](O)c3ccc(c(Cl)c3)Oc3cc2cc(c3O[C@@H]2O[C@H](CO)[C@@H](O)[C@H](O)[C@H]2O[C@H]2C[C@](C)(N)[C@H](O)[C@H](C)O2)Oc2ccc(cc2Cl)[C@H]1O (stereo partly shown) [Compound 62] |  |  |  |  |  |  |  |  |  |  | 0.01 to 0.5 | 4 to 8 | 0.01 to 0.5 | 0.01 to 0.5 | 2 to 4 | 0.5 to 1 | 0.01 to 0.5 | 0.01 to 0.5 | 0.01 to 0.5 | 0.01 to 0.5 | MIC [1, 11]: 0.01 to 0.5 µg/mL
6 | CCOc1ccc(C(=O)NC(=O)C[C@@H]2NC(=O)[C@H](NC(=O)[C@@H](CC(C)C)NC)[C@H](O)c3ccc(c(Cl)c3)Oc3cc4cc(c3O[C@@H]3O[C@H](CO)[C@@H](O)[C@H](O)[C@H]3O[C@H]3C[C@](C)(N)[C@H](O)[C@H](C)O3)Oc3ccc(cc3Cl)[C@@H](O)[C@@H]3NC(=O)[C@H](NC(=O)[C@@H]4NC2=O)c2ccc(O)c(c2)-c2c(O)cc(O)cc2[C@@H](C(=O)NC2C4CC5CC(C4)CC2C5)NC3=O)cc1 (stereo partly shown) [Compound 63] |  |  |  |  |  |  |  |  |  |  | 0.01 to 0.5 | 4 to 8 | 0.01 to 0.5 | 0.01 to 0.5 | 2 to 4 | 1 to 2 | 0.01 to 0.5 | 0.01 to 0.5 | 0.01 to 0.5 | 0.01 to 0.5 | MIC [1, 11]: 0.01 to 0.5 µg/mL
7 | CNCCOc1ccc(C(=O)NC(=O)C[C@@H]2NC(=O)[C@H](NC(=O)[C@@H](CC(C)C)NC)[C@H](O)c3ccc(c(Cl)c3)Oc3cc4cc(c3O[C@@H]3O[C@H](CO)[C@@H](O)[C@H](O)[C@H]3O[C@H]3C[C@](C)(N)[C@H](O)[C@H](C)O3)Oc3ccc(cc3Cl)[C@@H](O)[C@@H]3NC(=O)[C@H](NC(=O)[C@@H]4NC2=O)c2ccc(O)c(c2)-c2c(O)cc(O)cc2[C@@H](C(=O)NC2C4CC5CC(C4)CC2C5)NC3=O)cc1 (stereo partly shown) [Compound 67] |  |  |  |  |  |  |  |  |  |  | 0.01 to 0.5 | 4 to 8 | 1 to 2 | 0.01 to 0.5 | 1 to 2 | 1 to 2 | 0.01 to 0.5 | 0.01 to 0.5 | 0.01 to 0.5 | 0.01 to 0.5 | 
